Data published in paper PMC5017735, “A Novel Peptide Derived from the Fusion Protein Heptad Repeat Inhibits Replication of Subacute Sclerosing Panencephalitis Virus In Vitro and In Vivo” (PLoS ONE, 2016).

Tests used:
Vero cells = assay: Methyl tetrazolium cytotoxicity assay, Vero cells; assay type: cell-based, African green monkey; details: confluent Vero cells, 24 h, 37°C
Description: (§1) Peptide cytotoxicity was determined using the methyl tetrazolium assay. Five-fold serial dilutions of peptides were added to confluent Vero or Vero/SLAM cells. Cells were then incubated at 37°C for 24 h, and the number of viable cells was determined using 3-(4,5-dimethyllthiazol-2-yl)-2,5-diphenylterazolium bromide (Sigma–Aldrich, Tokyo, Japan). The 50% cytotoxic concentration (CC50), which was defined as the concentration required to reduce the cell viability by 50% relative to that of untreated controls, was determined. The selectivity index (SI) was defined as the ratio of the CC50 relative to the EC50 value.

[1] = In vivo toxicity, mice administered peptides alone; set-up: species or system BALB/cAJcl-nu/nu mice; details: peptide 100 μM intracranial, no virus infection
Description: Based on a previous report, but with slight modifications, 3-week-old female BALB/cAJcl-nu/nu mice (CLEA Japan Inc., Tokyo, Japan) were used in the animal experiments. Mice were divided in four groups (n = 6 for each cage) and housed with free access to both water and food and monitored daily. The mice were SSPE virus-infected or mock-infected (MEM alone) intracranially. An SSPE virus-infected cell suspension containing 250 PFU/ 30 μl (100% lethal dose) was inoculated into the subarachnoid space of nude mice using a 27-gauge double needle at a depth of 2 mm. Each compound was prepared at a concentration of 100 μM and was injected intracranially at 0 (mixed with viruses), 6, and 24 h after the initial virus inoculation. All injections were performed under inhalational anesthesia with isoflurane. Each mouse was checked for neurological symptoms and weighed daily. The ethical endpoint was defined as <75% of their maximum weight because most mice would die within 24 h. On attaining this endpoint, the mice were sacrificed by cervical dislocation under inhalational anesthesia with isoflurane. In this experiment, five mice died of natural causes before the ethical endpoint; however, all mice had neurological symptoms and 9.5%, 13.2%,14.5%, 15.8%, 16.4% weight loss (one each) relative to their maximum weight. This study was approved by the control of the Animal Research Committee in accordance with the Guidelines on Animal Experiments in Fukushima Medical University and the Rules for the Protection and Care of Animals (approval number: 23038).

Vero/SLAM cells = assay: Methyl tetrazolium cytotoxicity assay, Vero/SLAM cells; assay type: cell-based, African green monkey; details: confluent Vero/SLAM cells, 24 h, 37°C
Description: as §1

SSPE Yamagata-1 strain [2] = assay: Viral plaque reduction assay, SSPE virus in Vero/SLAM cells; assay type: cell-based, SSPE virus (variant measles virus); details: for EC50: plaque reduction, SSPE Yamagata-1 strain, mean ± SD; for SI, SSPE virus (Vero/SLAM cells): selectivity index, ratio of CC50 relative to EC50
Description: (§2) African green monkey kidney (Vero) cells and Vero cells expressing human SLAM (Vero/SLAM cells) were used in all experiments. The growth medium for Vero cells comprised minimal essential medium (MEM) supplemented with 10% heat-inactivated newborn bovine serum, penicillin G (100 IU/ml), streptomycin (100 μg/ml), and L-glutamine (300 μg/ml). The same growth medium, which was further supplemented with G418 (400 μg/ml), was used for Vero/SLAM cells. Cells were seeded into the wells (22 mm) of 12-well tissue culture plates at 1 × 10^5 cells/well and incubated at 37°C in a 10% CO2 incubator for 3 days, at which time they had just reached confluence. The virus strains used were human MV Edmonston strain and SSPE Yamagata-1 [34], which was originally isolated from the brain of an SSPE patient. The Edmonston strain of MV was used to inoculate Vero/SLAM cells and harvested after freeze–thawing infected cells. The SSPE Yamagata-1 strain was cultured in Vero/SLAM cells, harvested by trypsinization, prepared as an infected cell suspension in the Vero/SLAM cell medium supplemented with 10% dimethyl sulfoxide, and stored at −80°C until use.
(§3) Screening was performed to evaluate the antiviral effects of each synthetic peptide against the MV and SSPE viruses using the viral plaque reduction assay. Based on the results of the peptide screening, the 50% effective concentration (EC50), i.e., the concentration of compounds required to inhibit virus plaque formation by 50%, was also determined. The Human MV Edmonston strain was used to produce cell-free virions, which yielded a reproducible number of syncytia [generally 200–300 plaque-forming units (PFUs)] in the control wells. The SSPE virus was also used to yield a reproducible number of syncytia (generally 70–150 PFU) in control wells. In the peptide screening assay, each synthetic peptide was used at a concentration of 10 μM. IFN-α and enfuvirtide, a peptide fusion inhibitor of HIV-1, were used as controls at a concentration of 250 IU/ml and 10 μM, respectively.

MV Edmonston strain = assay: Viral plaque reduction assay, measles virus in Vero cells; assay type: cell-based; details: Vero cells; for EC50: plaque reduction, MV Edmonston strain, mean ± SD; for SI, measles virus (Vero cells): selectivity index, ratio of CC50 relative to EC50
Description: as §2, §3

SSPE virus = assay: Time-of-addition experiments, SSPE virus in Vero cells; assay type: cell-based, SSPE virus (variant measles virus)
Description: Synthetic peptides, M1 and M2EK (10 μM each) were used in time-of-addition experiments. Each peptide was added to Vero cells at three distinct time points: prior to infection (pretreatment with the compound), at the same time as the virus infection (simultaneous infection), or post-infection (post-entry). The SSPE virus was prepared to yield a reproducible number of syncytia in untreated control wells (approximately 50–100/well). In the pretreatment assay, peptide was added to confluent cells and incubated at 37°C for 30 min, and the cell cultures were washed with MEM before viral inoculation. Cells were then challenged with the SSPE virus at 0°C for 30 min. In the simultaneous infection assay, SSPE virus with peptide was inoculated at 0°C for 30 min. After the adsorption, the cell cultures were subsequently washed with MEM, and growth medium containing 0.75% methylcellulose was overlaid on the cell cultures, followed by incubation for 3 days in both pretreatment and simultaneous infection assays. In the post-entry assay, cells were challenged with the SSPE virus at 0°C for 30 min. After adsorption, the cell cultures were subsequently washed with MEM and peptide, which was prepared in growth medium containing 0.75% methylcellulose, was subsequently overlaid on the cell cultures at distinct time points. The starting point when cells were incubated at 0°C for 30 min was defined as t0.

SSPE Yamagata-1 strain [3] = assay: Viral plaque reduction assay, SSPE virus in Vero cells; assay type: cell-based, SSPE virus (variant measles virus); details: for EC50: plaque reduction, SSPE Yamagata-1 strain, mean ± SD; for EC50 / SI, SSPE virus (Vero cells): Vero cells; for SI, SSPE virus (Vero cells): selectivity index, ratio of CC50 relative to EC50
Description: as §2, §3

Row | Compound | CC50, SSPE virus (Vero cells) (Vero cells) [nM] | CC50, measles virus (Vero cells) (Vero cells) [nM] | survival of mice administered with peptides alone, with no symptoms [1] [days] | CC50, SSPE virus (Vero/SLAM cells) (Vero/SLAM cells) [nM] | EC50 (SSPE Yamagata-1 strain [2]) [nM] | SI, SSPE virus (Vero/SLAM cells) (SSPE Yamagata-1 strain [2]) | EC50 (MV Edmonston strain) [nM] | SI, measles virus (Vero cells) (MV Edmonston strain) | viral inhibitory effect, peptide added post-infection (post-entry) (SSPE virus; peptide 10 μM overlaid at distinct time points after adsorption) | viral plaque numbers, peptide added before viral adsorption or at the same time as virus inoculation (SSPE virus; peptide 10 μM, pretreatment 37°C 30 min or simultaneous with SSPE virus 0°C 30 min, compared with control) | inhibition of plaque formation compared with the control group, SSPE Yamagata-1 strain (peptide screening) (SSPE Yamagata-1 strain [3]; peptide 10 μM, Vero cells and Vero/SLAM cells (Fig 2C), duplicate, at least twice independently) [%] | EC50 (SSPE Yamagata-1 strain [3]) [nM] | SI, SSPE virus (Vero cells) (SSPE Yamagata-1 strain [3])
1 | enfuvirtide | >100000 | >100000 | > 45 | >100000 |  |  |  |  |  |  |  |  | 
2 | CC[C@H](C)[C@H](NC(C)=O)C(=O)N[C@@H](CO)C(=O)N[C@@H](CC(C)C)C(=O)N[C@@H](CCC(=O)O)C(=O)N[C@@H](CCCNC(=N)N)C(=O)N[C@@H](CC(C)C)C(=O)N[C@@H](CC(=O)O)C(=O)N[C@H](C(=O)NCC(=O)N[C@H](C(=O)N[C@@H](CC(N)=O)C(=O)N[C@@H](CC(C)C)C(=O)NCC(=O)N[C@@H](CC(N)=O)C(=O)N[C@@H](C)C(=O)N[C@H](C(=O)N[C@@H](C)C(=O)N[C@@H](CCCCN)C(=O)N[C@@H](CC(C)C)C(=O)N[C@@H](CCC(=O)O)C(=O)N[C@@H](CC(=O)O)C(=O)N[C@@H](C)C(=O)N[C@@H](CCCCN)C(=O)N[C@@H](CCC(=O)O)C(=O)N[C@@H](CC(C)C)C(=O)N[C@@H](CC(C)C)C(=O)N[C@@H](CCC(=O)O)C(=O)N[C@@H](CO)C(=O)N[C@@H](CO)C(=O)N[C@@H](CC(=O)O)C(=O)N[C@@H](CCC(N)=O)C(=O)N[C@H](C(=O)N[C@@H](CC(C)C)C(=O)N[C@@H](CCCNC(=N)N)C(=O)N[C@@H](CO)C(N)=O)[C@@H](C)CC)[C@@H](C)CC)[C@@H](C)O)C(C)C [Peptide M1] |  |  | > 45 |  | 10 ± 10 | >9524 | 30 ± 10 | >3663 | observed in a time-dependent manner, particularly within 24 h | no reduction in viral plaque numbers | > 97 | 10 ± 10 | >7519
3 | CC[C@H](C)[C@H](NC(=O)[C@H](C)NC(=O)[C@H](CC(N)=O)NC(=O)CNC(=O)[C@H](CC(C)C)NC(=O)[C@H](CC(N)=O)NC(=O)[C@@H](NC(=O)CNC(=O)[C@@H](NC(C)=O)C(C)C)[C@@H](C)O)C(=O)N[C@@H](C)C(=O)N[C@@H](CCCCN)C(=O)N[C@@H](CC(C)C)C(=O)N[C@@H](CCC(=O)O)C(=O)N[C@@H](CC(=O)O)C(=O)N[C@@H](C)C(=O)N[C@@H](CCCCN)C(=O)N[C@@H](CCC(=O)O)C(=O)N[C@@H](CC(C)C)C(=O)N[C@@H](CC(C)C)C(=O)N[C@@H](CCC(=O)O)C(=O)N[C@@H](CO)C(=O)N[C@@H](CO)C(=O)N[C@@H](CC(=O)O)C(=O)N[C@@H](CCC(N)=O)C(=O)N[C@H](C(=O)N[C@@H](CC(C)C)C(=O)N[C@@H](CCCNC(=N)N)C(=O)N[C@@H](CO)C(=O)N[C@@H](CCSC)C(=O)N[C@@H](CCCCN)C(=O)NCC(=O)N[C@@H](CC(C)C)C(=O)N[C@@H](CO)C(=O)N[C@@H](CO)C(=O)N[C@H](C(N)=O)[C@@H](C)O)[C@@H](C)CC [Peptide M2] | >100000 | >100000 |  | >100000 | 480 ± 220 | >209 | 120 ± 40 | >805 |  |  |  | 260 ± 170 | >377
